Test results: US11873298B2, “Compounds and uses thereof” (JANSSEN PHARMACEUTICA NV, priority 2017, dated 2024)

Experiments:
SCD5 = molecular target: T1, SCD5 (Homo sapiens, UniProt Q86SK9); assay: Growth inhibition of humanized yeast strain expressing SCD5 as sole desaturase; type: cell-based
T1 construct: host or cells: S. cerevisiae ole1Δ strain (W303 pdr1Δ pdr3Δ background), plasmid pRS316 with TDH3 promoter and CYC1 terminator
T1 sequence (Q86SK9 1-330): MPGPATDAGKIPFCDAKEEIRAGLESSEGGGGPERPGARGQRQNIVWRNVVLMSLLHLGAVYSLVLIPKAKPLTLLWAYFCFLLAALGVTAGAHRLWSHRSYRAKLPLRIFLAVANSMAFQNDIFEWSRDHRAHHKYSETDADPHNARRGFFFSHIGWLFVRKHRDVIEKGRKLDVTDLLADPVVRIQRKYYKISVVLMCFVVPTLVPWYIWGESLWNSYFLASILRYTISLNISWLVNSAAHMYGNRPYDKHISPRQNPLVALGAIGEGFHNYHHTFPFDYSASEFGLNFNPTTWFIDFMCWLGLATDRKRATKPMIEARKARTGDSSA
Procedure: (§1) Strain oleΔ (yeast ole1 deletion mutant) was constructed by deleting OLE1 with NAT-MX6 in BY4741, amplifying the deletion cassette from the genomic DNA of the resulting strain with primers flanking the ORF by 1000 bp upstream and downstream, transforming the resulting deletion cassette into W303 pdr1Δ pdr3Δ, and plating transformants on YPD media containing G418 (200 μg/mL) and nourseothricin ([…]) with 0.01% TWEEN®-20 and 0.5 mM oleic and palmitoleic acids.
(§2) The coding sequence of yeast OLE1 was also cloned into this plasmid). These clones were then transformed into the ole1Δ strain and plated on CSM-Ura media (CSM lacking uracil) with 2% glucose (w/v) and independent colonies were isolated and amplified.
(§3) All compound profiling experiments were performed using the same basic protocol. Different genetic backgrounds (e.g., gene deletions) or conditions (e.g., addition of oleic and palmitoleic acid) were replaced as indicated below.
(§4) Yeast were cultured using standard techniques in complete synthetic media (CSM) and yeast nitrogen base supplemented with 2% (w/v) carbon source (glucose, raffinose, or galactose) to regulate the expression of the toxic disease protein. An initial starter culture was inoculated in 3 mL CSM-Glucose media and incubated overnight in a 30° C. shaker incubator (225 rpm). Saturated morning cultures were then diluted 1:20 in fresh CSM-Raffinose media and grown for 6 h to an OD600 (optical density) of ˜0.4-0.8 at 30° C. with shaking.
(§5) Compound administration was performed in two separate steps. First, 15 μL of CSM-Galactose (induces expression of toxic protein) was dispensed into clear 384 well assay plates using a MULTIDROP™ Combi reagent dispenser. […] The cultures described above were then diluted to a 2× concentration (0.03 and 0.08 for alpha-synuclein and ApoE, final ODsoo of 0.015 and 0.04) in CSM-Galactose. For wild-type and Ole1/SCD1/SCD5 plasmid-containing strains, the 2× cell density was 0.02. […] For 96-well assays (FIGS. 1A and 1B), compound dilutions in DMSO were generated in 96 well plates and 1 μL was manually pipetted into 96 well clear bottom assay plates.
(§6) For experiments using a plasmid-borne copy of Ole1, SCD1, or SCD5 (FIGS. 3B, 6, and 7), media lacking uracil (SX-Ura, where X is glucose, raffinose, or galactose), was used for all steps of the compound profiling protocol to ensure its maintenance throughout the assay.
(§7) After yeast delivery, assay plates were incubated under humidified conditions at 30° C. for 24 to 40 h. ApoE4 rescue experiments were stopped at 24 h, aSyn experiments at 40 h, Ole1 at 24 h, and SCD1/SCD5 at 40 h. The growth of yeast was monitored by reading the ODsoo of each well using a microplate reader (Perkin Elmer EnVision™).

SCD1 = molecular target: T2, SCD1 (Homo sapiens, UniProt O00767); assay: Growth inhibition of humanized yeast strain expressing SCD1 as sole desaturase; type: cell-based
T2 construct: host or cells: S. cerevisiae ole1Δ strain (W303 pdr1Δ pdr3Δ background), plasmid pRS316 with TDH3 promoter and CYC1 terminator
T2 sequence (O00767 1-359): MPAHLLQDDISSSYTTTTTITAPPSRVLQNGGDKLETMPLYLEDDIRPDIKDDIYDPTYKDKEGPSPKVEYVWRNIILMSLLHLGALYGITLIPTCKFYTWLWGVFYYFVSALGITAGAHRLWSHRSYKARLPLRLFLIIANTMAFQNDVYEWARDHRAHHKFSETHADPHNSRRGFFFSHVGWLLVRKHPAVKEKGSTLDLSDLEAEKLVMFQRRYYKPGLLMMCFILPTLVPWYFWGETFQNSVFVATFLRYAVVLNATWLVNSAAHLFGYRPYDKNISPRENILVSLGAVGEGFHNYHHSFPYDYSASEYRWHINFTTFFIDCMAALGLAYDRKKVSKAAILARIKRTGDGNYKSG
Procedure: as §1, §2, §3, §4, §5, §6, §7

[1] = yeast strain expressing human SCD1 as sole desaturase, Table 8
[2] = humanized yeast strain expressing SCD5
[3] = yeast strain expressing human SCD5 as sole desaturase, Table 8

Compound | IC50 (SCD5; [2]) [nM] | IC50 (SCD5; [3]) [nM] | further results
COC(=O)N1CCC(c2noc(-c3ccnc(N4CCOCC4)c3)n2)CC1 [Compound 1106] | – | – | IC50 (SCD5; humanized yeast strain, 40 h): 2960 nM; IC50 (SCD1; humanized yeast strain, 40 h): > 45 µM
COC(=O)N1CCC(c2noc(-c3ccccc3N3CCOCC3)n2)CC1 [Compound 1169] | – | – | IC50 (SCD5; humanized yeast strain, 40 h): > 45000 nM; IC50 (SCD1; humanized yeast strain, 40 h): 15.4 µM
CC(C)(C)OC(=O)N1CCC(c2noc(-c3ccc4cnn([C@H]5CCOC5)c4c3)n2)CC1 [Compound 1201] | – | – | IC50 (SCD1; [1]): 1.4 µM
Cc1cc(-c2nc(C3CCN(C(=O)OC(C)(C)C)CC3)no2)cc(C2CCOC2)n1 (stereo not drawn) [Compound 1266] | – | – | IC50 (SCD1; [1]): 31.7 µM
COC(=O)N1CCC(c2noc(-c3ccc4cnn([C@@H]5CCOC5)c4c3)n2)CC1 [Compound 877] | – | – | IC50 (SCD1; humanized yeast strain, 40 h): > 45 µM
Cc1nn(C)c2cc(-c3nsc(C4CCN(C(=O)OC(C)(C)C)CC4)n3)ccc12 [Compound 503] | 316 | – | –
CC(C)C(=O)N1CCC(c2noc(-c3cncc(C4CCOC4)c3)n2)CC1 (stereo not drawn) [Compound 1199] | – | 3780 | –
CC(C)C(=O)N1CCC(c2noc(N3CCc4cnn(C5COC5)c4C3)n2)CC1 [Compound 1223] | – | 2300 | –
CCC(=O)N1CCC(c2noc(-c3cc(C4CCOC4)ccn3)n2)CC1 (stereo not drawn) [Compound 1281] | – | 6990 | –
CC1(CC(=O)N2CCC(c3nc(-c4ccc5cnn(C6COC6)c5c4)no3)CC2)CC1 [Compound 559] | 1190 | – | –
CC(C)S(=O)(=O)N1CCC(c2noc(-c3ccc4cnn(C5COC5)c4c3)n2)CC1 [Compound 1218] | – | 160 | –
O=C(NCC(=O)N1CCC(c2nc(-c3ccc4cnn(C5COC5)c4c3)no2)CC1)c1ccccc1 [Compound 598] | > 45000 | – | –
CC(C)n1ncc2ccc(-c3noc(N4CCN(C(=O)CC5(C)CC5)CC4)n3)cc21 [Compound 495] | 1920 | – | –
CC(C)n1ncc2ccc(N3CC4(CCN(C(=O)OC5CC5)CC4)C3)cc21 [Compound 594] | 11800 | – | –
CC(C)n1ncc2ccc(-c3noc([C@@H]4[C@@H]5CN(C(=O)OC(C)(C)C)C[C@@H]54)n3)cc21 [Compound 498] | > 45000 | – | –
CC(C)CC(=O)N1CCC(c2cc(-c3cnc4cnn(C5COC5)c4c3)on2)CC1 [Compound 1231] | – | 16400 | –
CC(C)n1ncc2ccc(-c3nc(N4CCN(C(=O)c5ccccc5)CC4)no3)cc21 [Compound 582] | 176 | – | –
CC(C)n1ncc2ccc(-c3noc(C4CCN(C(=O)[C@H]5CC(=O)N(c6cccc(C#N)c6)C5)CC4)n3)cc21 [Compound 529] | > 45000 | – | –
CC1(OC(=O)N2CCC(c3noc(-c4cncc(C5CCOC5)c4)n3)CC2)CC1 (stereo not drawn) [Compound 1206] | – | 320 | –
CC(C)(C)OC(=O)N1CCC(c2noc(-c3cc(C4CCOC4)ncc3F)n2)CC1 (stereo not drawn) [Compound 1267] | – | 2650 | –
CC(C)(C)OC(=O)N1CCC(c2noc(-c3cc(C4CCOC4)c(F)cn3)n2)CC1 (stereo not drawn) [Compound 1284] | – | 20 | –
CC(C)(C)OC(=O)N1CCN(c2cc(-c3ccc4cnn(C5COC5)c4n3)on2)CC1 [Compound 1228] | – | 1950 | –
CC1(C(=O)N2CCC(c3cc(-c4cc5c(cn4)cnn5C4COC4)on3)CC2)CC1 [Compound 1237] | – | 70 | –
O=C(C1CCC1)N1CCC(c2noc(-c3ccnc(N4CCC(F)(F)C4)c3)n2)CC1 [Compound 1246] | – | 400 | –
COC(=O)N1CCN(c2cc(-c3ccc4cnn(C5COC5)c4n3)on2)CC1 [Compound 1238] | – | 24600 | –

Compound | IC50 (SCD5; [2]) [nM] | IC50 (SCD5; [3]) [nM] | further results
CCC(=O)N1CCC(c2noc(-c3cc(N4CCC(F)(F)C4)c(F)cn3)n2)CC1 [Compound 1311] | – | 7740 | –
CCS(=O)(=O)N1CCC(c2noc(-c3ccc4cnn(C5COC5)c4c3)n2)CC1 [Compound 1216] | – | 330 | –
COC(=O)N[C@H]1CC[C@@H](c2nc(-c3ccc4c(C)nn(C)c4c3)no2)CC1 [Compound 550] | > 45000 | – | –
CC(C)n1ncc2ccc(-c3noc(C4CCN(C(=O)c5ncccc5Cl)CC4)n3)cc21 [Compound 587] | 4920 | – | –
CC(C)(C)OC(=O)N1CCC(c2noc(-c3cc(N4CCC(F)(F)C4)ccn3)n2)CC1 [Compound 1286] | – | 4290 | –
O=C(C1CCC1)N1CCC(c2noc(-c3ccc(F)c(N4CCOCC4)c3)n2)CC1 [Compound 1258] | – | 40 | –
CC1CN(c2cc(-c3nc(C4CCN(C(=O)C(C)C)CC4)no3)ccc2F)CC(C)O1 (stereo not drawn) [Compound 1305] | – | 5390 | –
COC(=O)N1CCC2(CC1)CN(c1nc(-c3ccc4cnn(C(C)C)c4c3)no1)C2 [Compound 570] | 26300 | – | –
Cn1ncc2ccc(-c3noc(N4CCN(C(=O)OC(C)(C)C)CC4)n3)cc21 [Compound 545] | 18900 | – | –
O=C(C1CCC1)N1CCC(c2noc(-c3ccnc([C@H]4CCOC4)c3)n2)CC1 [Compound 1240] | – | 200 | –
Cn1cc2c(n1)CN(c1nc(C3CCN(C(=O)OC(C)(C)C)CC3)no1)CC2 [Compound 1272] | – | 7540 | –
Cc1nn(C)c2cc(-c3noc(C4CCN(C(=O)CC5COC5)CC4)n3)ccc12 [Compound 592] | > 45000 | – | –
CC(C)CC(=O)N1CCC(c2noc(-c3cnc4cnn(C5COC5)c4c3)n2)CC1 [Compound 1214] | – | 390 | –
CC(C)n1ncc2ccc(N3CC4(CCNCC4)C3)cc21 [Compound 538] | > 45000 | – | –
CCC(=O)N1CCC(c2noc(-c3cc(N4CCOCC4)ccn3)n2)CC1 [Compound 1300] | – | 60 | –
CC(C)n1ncc2ccc(-c3nc(C4CCN(C(=O)c5cccc(F)c5)CC4)no3)cc21 [Compound 506] | 810 | – | –
COC(=O)N1CCC(c2noc(-c3ccc4cnn([C@@H]5CCOC5)c4c3)n2)CC1 [Compound 876] | – | – | IC50 (SCD1; humanized yeast strain, 40 h): > 45 µM
O=C(c1ccccc1Cl)N1CCC(c2nc(-c3ccc4cnn(C5COC5)c4c3)no2)CC1 [Compound 562] | 1500 | – | –
CC(C)n1ncc2ccc(-c3noc([C@H]4CC[C@H](N)CC4)n3)cc21 [Compound 596] | > 45000 | – | –
CC1(OC(=O)N2CCC(c3noc(-c4ccc5cnn([C@H]6CCOC6)c5c4)n3)CC2)CC1 [Compound 1209] | – | – | IC50 (SCD1; [1]): 12.6 µM
CC(C)(C)OC(=O)N1CCC(c2noc(-c3cc(F)c(F)c(N4CCOCC4)c3)n2)CC1 [Compound 1301] | – | 5180 | –
Cn1cnc(-c2cc(-c3nc(C4CCN(C(=O)OC(C)(C)C)CC4)no3)ccn2)c1 [Compound 1294] | – | 190 | –
CC(C)(C)OC(=O)N1CCC(c2noc(-c3cnnc(C4CCOC4)c3)n2)CC1 (stereo not drawn) [Compound 1234] | – | 490 | –
CC(C)(C)OC(=O)N1CCC(c2cc(-c3ccnc(C4CCOC4)n3)no2)CC1 (stereo not drawn) [Compound 1202] | – | 7130 | –
